Measurements reported in ChEMBL document CHEMBL1201862, “PubChem BioAssay data set” (2004).
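Five concentrations, 48 hours, 96-well plates. Abbreviation: GI50, concentration required for 50% inhibition of growth.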 Active and inactive are the calls of the source. No stated cut-off is given here; in the data, active = GI50 up to about 1.1 µM and inactive = higher.

Tests used:
Assay in all cases: inhibition of tumour cell growth, NCI panel, 48 h
[1] = system: M19-MEL
[2] = system: KM-20L2
[3] = system: SNB-78
[4] = system: DMS-114
[5] = system: DLD-1
[6] = system: RXF 631
[7] = system: LXFL 529
[8] = system: DMS-273
[9] = system: XF498

| Compound | GI50 [1] | GI50 [2] | GI50 [3] | GI50 [4] | GI50 [5] | GI50 [6] | GI50 [7] | GI50 [8] | GI50 [9] |
| --- | --- | --- | --- | --- | --- | --- | --- | --- | --- |
| CC#COP(=O)(OCC)OCC | > 100 µM (inactive) | > 100 µM (inactive) | > 100 µM (inactive) | > 100 µM (inactive) | > 100 µM (inactive) | > 100 µM (inactive) | > 100 µM (inactive) | – | – |
| O=C(CCC(=O)Nc1ccc(Cl)cc1)CC(=O)c1ccc2ccccc2c1 | > 100 µM (inactive) | > 100 µM (inactive) | > 100 µM (inactive) | > 100 µM (inactive) | > 100 µM (inactive) | > 100 µM (inactive) | > 100 µM (inactive) | > 100 µM (inactive) | – |
| O=C1NC2=C(CCCCC/C2=N\O)C12CCCCCC2 | > 100 µM (inactive) | – | > 100 µM (inactive) | > 100 µM (inactive) | > 100 µM (inactive) | – | > 100 µM (inactive) | > 100 µM (inactive) | > 100 µM (inactive) |
| COC(=O)C(Cc1nc2ccc(Cl)cc2nc1O)/C(=N\N)C(=O)Nc1cc(C)c(Cl)cc1S(=O)(=O)O (stereo not given) | – | – | > 100 µM (inactive) | 73.5 µM (inactive) | > 100 µM (inactive) | – | > 100 µM (inactive) | – | – |
| CCCC(=O)C(CC)/C(CCC(=O)N(Cc1ccccc1)Cc1ccccc1)=N/NC(=O)C[N+](C)(C)C (stereo not given) | > 100 µM (inactive) | > 100 µM (inactive) | > 100 µM (inactive) | > 100 µM (inactive) | > 100 µM (inactive) | – | > 100 µM (inactive) | > 100 µM (inactive) | 65.2 µM (inactive) |
| Cc1ccccc1Cn1nc2ccccc2cc1=O | > 100 µM (inactive) | > 100 µM (inactive) | > 100 µM (inactive) | > 100 µM (inactive) | > 100 µM (inactive) | – | – | > 100 µM (inactive) | > 100 µM (inactive) |
| C#CCNC(=O)NCCCC(NC(C)=O)C(=O)NCc1ccccc1 (stereo not given) | > 100 µM (inactive) | > 100 µM (inactive) | > 100 µM (inactive) | > 100 µM (inactive) | > 100 µM (inactive) | > 100 µM (inactive) | > 100 µM (inactive) | – | – |
| C/C(=N\NC(N)=S)c1ccc(C)cc1C | 36.9 µM (inactive) | > 100 µM (inactive) | > 100 µM (inactive) | – | 56.8 µM (inactive) | 91 µM (inactive) | 39.1 µM (inactive) | > 100 µM (inactive) | 43.1 µM (inactive) |
| O=C1C/C(Br)=C\c2ccccc2-c2ccccc21 | 1.87 µM (inactive) | 2.84 µM (inactive) | 3.85 µM (inactive) | 2.79 µM (inactive) | 1.11 µM (active) | – | 1.73 µM (inactive) | 2.19 µM (inactive) | 1.76 µM (inactive) |
| C/C(=C1/CCCC2(N=NCC2c2ccccc2)C1=O)c1ccccc1 (stereo not given) | 22.3 µM (inactive) | 25.6 µM (inactive) | 25.4 µM (inactive) | 9.16 µM (inactive) | 38.3 µM (inactive) | – | 17.3 µM (inactive) | 15.9 µM (inactive) | 17.4 µM (inactive) |
| COC(=O)c1nn(-c2ccccc2)c(=O)cc1N=[N+]=[N-] | > 100 µM (inactive) | > 100 µM (inactive) | > 100 µM (inactive) | > 100 µM (inactive) | – | – | > 100 µM (inactive) | > 100 µM (inactive) | > 100 µM (inactive) |
| CCCC(=O)Nc1ccc(O)c2c1C1CCCCCC21 (stereo not given) | > 100 µM (inactive) | > 100 µM (inactive) | > 100 µM (inactive) | 50.2 µM (inactive) | – | – | > 100 µM (inactive) | > 100 µM (inactive) | 65 µM (inactive) |
| CCOC(=O)C(OCC1CC=CCC1)Sc1ccccc1 (stereo not given) | > 100 µM (inactive) | > 100 µM (inactive) | > 100 µM (inactive) | > 100 µM (inactive) | > 100 µM (inactive) | – | > 100 µM (inactive) | > 100 µM (inactive) | – |
| O=C1C=C(O)C(=Cc2c(O)cc(O)cc2O)C(O)=C1 | > 100 µM (inactive) | > 100 µM (inactive) | > 100 µM (inactive) | > 100 µM (inactive) | > 100 µM (inactive) | > 100 µM (inactive) | > 100 µM (inactive) | > 100 µM (inactive) | > 100 µM (inactive) |
| Fc1cccc2c1cc1ccc3cccc4ccc2c1c34 | > 100 µM (inactive) | > 100 µM (inactive) | > 100 µM (inactive) | – | > 100 µM (inactive) | – | > 100 µM (inactive) | > 100 µM (inactive) | > 100 µM (inactive) |
| COC1[C@H](NC(=O)OC(C)(C)C)C(=O)N1Cc1ccccc1 (stereo not given in full) | > 100 µM (inactive) | > 100 µM (inactive) | > 100 µM (inactive) | > 100 µM (inactive) | > 100 µM (inactive) | – | > 100 µM (inactive) | > 100 µM (inactive) | > 100 µM (inactive) |
| CC(C)NC(C)C(C)c1ccccc1 (stereo not given) | > 100 µM (inactive) | > 100 µM (inactive) | – | > 100 µM (inactive) | > 100 µM (inactive) | – | > 100 µM (inactive) | > 100 µM (inactive) | > 100 µM (inactive) |
| C#Cc1ccccc1N1C(=O)C=CC1=O | > 100 µM (inactive) | > 100 µM (inactive) | > 100 µM (inactive) | > 100 µM (inactive) | > 100 µM (inactive) | – | > 100 µM (inactive) | – | – |
